Results on 30 molecules are retold here after patent publication US7528132B2, “Kinase inhibitors” (Schering Corporation, priority 2005, dated 2009).

One may read the inhibition as how much of the control response was suppressed. A low value points to a response near the control. One may read the IC50 as the midpoint of a concentration-inhibition curve.

The test concerns the target T1, Akt1 (Homo sapiens, UniProt P31749).
T1 construct: made in house; host or cells: Sf9 insect cells (baculovirus, pBlueBacHis2B)
Kind of test: Akt1 kinase assay (33P phosphorylation of biotinylated peptide, Flash plates). In kind it is biochemical. The conditions noted are these: for inhibition at 1.1 µg/mL: assayed at a concentration of 1.1 mcg/mL. The source says: The assay described below measures the phosphorylation of a biotinylated peptide by active recombinant Akt1 and other kinase isoforms. The biotinylated peptide contains a consensus sequence derived from Akt substrate Gsk3 (Glycogen synthase kinase 3). The ^33P-labeled peptide substrate was captured by streptavidin-coated Flash plates.
Active recombinant Akt1 was expressed in Sf9 insect cells and purified as described by Kumar et al., Biochim. Biophys. Acta. Jun. 15, 2001, 1526(3), 257-268. Biotinylated peptide of the sequence Bio-ahx-RPRAASF was purchased from Syn Pep (Dublin, Calif., USA).
Cloning and Expression of Human Akt1 Sf9 Cells
Human Akt1 cDNA was amplified from a marathon-ready human lung cDNA library (Clonetech) using nested oligo primers as described below. The first round of amplification was carried out using the following primers; Akt1F1 ([…]) and Akt1R1 (TCCATC […]) and for the second round amplification, the primers of the following sequence were used; Akt1F2 (GGATCCTCGG […]) and AKT1R2 (GGTACCATCGTC […]). The PCR product was subcloned into pCRScript plasmid as a BamHI/KpnI fragment and the sequence of the cDNA was confirmed by DNA sequencing. This plasmid was used as a template for reamplification of Akt1 using appropriate primers for subcloning into pBlueBaHis2B into BamH1/EcoRI sites to generate an in frame fusion to (His)6 tag and an anti-Xpress antibody epitope tag at the N-terminus. This construct was sequenced to verify the junction sequences and used for generating a recombinant baculovirus. Growth of the recombinant virus, amplification and determination of viral titer were carried out according to the instructions from the manufacturer (InVitrogen, CA).
Purification of Akt1 from Sf9 Cells
Viral stocks were used to infect large scale Sf9 cells at a multiplicity of infection (MOI) of 2.5. Cells were maintained at 27° C. for 60 h and okadaic acid was added to the cultures to a concentration of 50 nM. Cells were harvested 4 h hours later by centrifugation at 1200 rpm for 30 min followed by freezing at −80° C. until further use. All purification steps were carried out at 4° C. Whole cell pellets were suspended in buffer A (20 mM sodium phosphate buffer pH 7.8, 500 mM NaCl, 1 mM sodium vanadate, 5 mM sodium fluoride, 40 mM β-glycerophosphate, 10 mM imidazole and protease inhibitor cocktail) and lysed using a microfluidizer. The cell extract was centrifuged at 16,000×g for 10 min to remove the debris and directly loaded onto Ni-NTA Superflow resin using a FPLC pump operated at 1 ml/min. The column was washed once with buffer A, once with wash buffer B (20 mM sodium phosphate pH 6.0, 1 mM sodium vanadate, 5 mM sodium fluoride and protease cocktail) and once with wash buffer B containing 0.05% Tween-20 followed by washing with buffer A until OD260 returned to basal level. Proteins were eluted with buffer A containing 200 mM imidazole. Fractions were analyzed by electrophoresis on 10% denaturing polyacrylamide gels and fractions containing 85% pure protein band at 60 KDa were pooled and dialyzed against buffer C (20 mM Tris-HCl pH 7.5, 0.5 mM EDTA,-2 mM DTT, 145 mM NaCl, 0.1 mM sodium vanadate, 5 mM sodium fluoride, 10 mM, β-glycerophosphate and 20% glycerol). Purified protein was stored as aliquots at −80° C. Protein concentrations were determined using BCA protein assay reagent A (Catalog #23228). To examine the identity of the proteins, 2 μg of purified protein was electrophoresed on SDS-polyacrylamide gels and stained with coomassie blue dye or transferred to nitrocellulose membrane and probed with anti-Akt and anti-phospho-specific Akt antibodies using enhanced chemiluminescence (ECL) reagent according to the protocol described by the manufacturer (Amersham).
The kinase assay was performed in 96 well plates at room temperature. Assay solutions and plates were preincubated at room temperature for 5 min. […]

Where [1] appears, read: read-out: IC50 rating (AKT1 inhibition).

Like-named read-outs stand apart in the source and are kept apart here.

T1 sequence (P31749 whole entry): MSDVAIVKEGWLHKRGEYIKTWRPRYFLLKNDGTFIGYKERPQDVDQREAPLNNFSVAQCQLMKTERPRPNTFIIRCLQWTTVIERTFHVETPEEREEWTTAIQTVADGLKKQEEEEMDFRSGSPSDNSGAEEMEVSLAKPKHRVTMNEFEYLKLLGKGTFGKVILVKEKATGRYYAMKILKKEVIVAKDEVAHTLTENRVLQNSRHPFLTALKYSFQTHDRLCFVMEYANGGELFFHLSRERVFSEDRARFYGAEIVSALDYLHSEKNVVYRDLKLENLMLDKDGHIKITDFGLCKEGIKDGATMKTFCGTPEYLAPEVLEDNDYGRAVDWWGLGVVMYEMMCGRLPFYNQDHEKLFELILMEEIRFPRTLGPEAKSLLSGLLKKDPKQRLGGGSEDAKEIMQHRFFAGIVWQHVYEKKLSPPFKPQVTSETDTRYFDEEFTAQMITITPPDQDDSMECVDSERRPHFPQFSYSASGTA

For `Cc1n[nH]c2ccc(-c3nnc(NCc4ccccc4)c(N4CCN[C@@H](C(C)C)C4)n3)cc12` [Compound 16, 6-benzylamino-5-[(S)-3-isopropylpiperazin-1-yl]-3-(3-methylindazol-5-yl)-[1,2,4]triazine], the inhibition at 1.1 µg/mL was over 90%. Further, under setting [1], the IC50 is under 100 nM. Turning to `Cc1n[nH]c2ccc(-c3nnc(NCc4ccccc4)c(N4CCN[C@@H](CC(C)C)C4)n3)cc12` [Compound 17, 6-benzylamino-5-[(S)-3-isobutylpiperazin-1-yl]-3-(3-methylindazol-5-yl)-[1,2,4]triazine], the IC50 under setting [1] was over 1000 nM. The same measure, in the same setting: as for `Cc1n[nH]c2ccc(-c3nnc(NCc4ccccc4)c(N4CCN[C@@H](Cc5ccccc5)C4)n3)cc12` [Compound 18, 6-Benzylamino-5-[(S)-3-benzylpiperazin-1-yl]-3-(3-methylindazol-5-yl)-[1,2,4]triazine], the figure is over 1000 nM; as for `Cc1n[nH]c2ccc(-c3nncc(N4CCN[C@@H](C(C)C)C4)n3)cc12` [Compound 19, 5-[(S)-3-isopropylpiperazin-1-yl]-3-(3-methylindazol-5-yl)-[1,2,4]triazine], under 100 nM. In the case of `Cc1n[nH]c2ccc(-c3nnc(Cl)c(N4CCN[C@@H](C(C)C)C4)n3)cc12` [Compound 20, 6-chloro-5-[(S)-3-isopropylpiperazin-1-yl]-3-(3-methylindazol-5-yl)-[1,2,4]triazine], the inhibition at 1.1 µg/mL was over 90%. In addition, the IC50 under setting [1] was under 100 nM. With `Cc1n[nH]c2ccc(-c3nncc(N4CCN[C@@H](Cc5c[nH]c6ccccc56)C4)n3)cc12` [Compound 21, 5-[(S)-3-(3-indolylmethyl)piperazin-1-yl]-3-(3-methylindazol-5-yl)-[1,2,4]triazine], under setting [1], the IC50 was 100 to 1000 nM.

Consider `Cc1n[nH]c2ccc(-c3nnc(Cl)c(N4CCN[C@@H](Cc5c[nH]c6ccccc56)C4)n3)cc12` [Compound 22, 6-chloro-5-[(S)-3-(3-indolylmethyl)piperazin-1-yl]-3-(3-methylindazol-5-yl)-[1,2,4]triazine], for which, under setting [1], the half-inhibitory concentration (IC50) is over 1000 nM. Turning to `Cc1n[nH]c2ccc(-c3nncc(N4CCN[C@@H](CC(C)C)C4)n3)cc12` [Compound 23, 5-[(S)-3-isobutylpiperazin-1-yl]-3-(3-methylindazol-5-yl)-[1,2,4]triazine], the inhibition at 1.1 µg/mL was over 90%. Moreover, the 50% inhibitory concentration (IC50) (read-out: IC50 (AKT1 inhibition)) was 5.4 nM. Besides, the concentration for half-maximal inhibition (IC50) under setting [1] is under 100 nM. Consider `Cc1n[nH]c2ccc(-c3nnc(Cl)c(N4CCN[C@@H](CC(C)C)C4)n3)cc12` [Compound 24, 6-chloro-5-[(S)-3-isobutylpiperazin-1-yl]-3-(3-methylindazol-5-yl)-[1,2,4]triazine], for which the inhibition at 1.1 µg/mL was over 90%. Besides, the 50% inhibitory concentration (IC50) under setting [1] is under 100 nM.

With `Cc1n[nH]c2ccc(-c3nnc(Cl)c(N4CCN[C@@H](COCc5ccccc5)C4)n3)cc12` [Compound 25, 5-[(R)-3-(benzyloxymethyl)piperazin-1-yl]-6-chloro-3-(3-methylindazol-5-yl)-[1,2,4]triazine], the half-maximal inhibitory concentration (IC50) under setting [1] is over 1000 nM. With `Cc1n[nH]c2ccc(-c3nncc(N4CCN[C@@H](COCc5ccccc5)C4)n3)cc12` [Compound 26, 5-[(R)-3-(benzyloxymethyl)piperazin-1-yl]-3-(3-methylindazol-5-yl)-[1,2,4]triazine], the IC50 under setting [1] is over 1000 nM. On the same count and under the same terms, the same measure for `Cc1n[nH]c2ccc(-c3nncc(N4CCN[C@@H](CO)C4)n3)cc12` [Compound 27]: over 1000 nM; for `Cc1n[nH]c2ccc(-c3nncc(N4CCN(C)[C@@H](Cc5ccccc5)C4)n3)cc12` [Compound 28, 5-[(S)-3-benzyl-4-methyl-piperazin-1-yl]-3-(3-methylindazol-5-yl)-[1,2,4]triazine]: under 100 nM.

For `Cc1n[nH]c2ccc(-c3nncc(N4CCN5CCCC5C4)n3)cc12` (centres unmarked) [Compound 29, 5-(1,4-diazabicyclo[4.3.0]non-1-yl)-3-(3-methylindazol-5-yl)-[1,2,4]triazine], the half-inhibitory concentration (IC50) under setting [1] was over 1000 nM. Regarding `Cc1n[nH]c2ccc(-c3nncc(N4CCN5CCCCC5C4)n3)cc12` (centres unmarked) [Compound 30, 5-(1,4-diazabicyclo[4.4.0]dec-1-yl)-3-(3-methylindazol-5-yl)-[1,2,4]triazine], the IC50 under setting [1] was over 1000 nM. For the molecule `Cc1n[nH]c2ccc(-c3nnc(Cl)c(N4CCN5CCCC5C4)n3)cc12` (centres unmarked) [Compound 31, 6-chloro-5-(1,4-diazabicyclo[4.3.0]non-1-yl)-3-(3-methylindazol-5-yl)-[1,2,4]triazine], under setting [1], the half-inhibitory concentration (IC50) is over 1000 nM.

For `Cc1n[nH]c2ccc(-c3nnc(Cl)c(N4CCN5CCCCC5C4)n3)cc12` (centres unmarked) [Compound 32], the IC50 under setting [1] is over 1000 nM. The same measure, in the same setting: as for `Cc1n[nH]c2ccc(-c3nncc(N4CCCC(N)C4)n3)cc12` (centres unmarked) [Compound 33, 5-(3-aminopiperidin-1-yl)-3-(3-methylindazol-5-yl)-[1,2,4]triazine], the figure is 100 to 1000 nM. Still for that read-out and setting: the same measure for `Cc1n[nH]c2ccc(-c3nnc(Cl)c(N4CCCC(N)C4)n3)cc12` (centres unmarked) [Compound 34, 5-(3-aminopiperidin-1-yl)-6-chloro-3-(3-methylindazol-5-yl)-[1,2,4]triazine]: 100 to 1000 nM; for `Cc1n[nH]c2ccc(-c3nncc(N4CCCC(CN)C4)n3)cc12` (centres unmarked) [Compound 35, 5-(3-aminmethylopiperidin-1-yl)-3-(3-methylindazol-5-yl)-[1,2,4]triazine]: over 1000 nM.

On to `Cc1n[nH]c2ccc(-c3nnc(Cl)c(N4CCCC(CN)C4)n3)cc12` (centres unmarked) [Compound 36, 5-(3-aminmethyiopiperidin-1-yl)-6-chloro-3-(3-methylindazol-5-yl)-[1,2,4]triazine], for which, under setting [1], the half-maximal inhibitory concentration (IC50) fell in the range of 100 to 1000 nM. Same read-out and setting: as for `Cc1n[nH]c2ccc(-c3nncc(N4CCC(N)C4)n3)cc12` (centres unmarked) [Compound 37, 5-(3-aminopyrrolidin-1-yl)-3-(3-methylindazol-5-yl)-[1,2,4]triazine], the figure is 100 to 1000 nM; as for `Cc1n[nH]c2ccc(-c3nnc(Cl)c(N4CCC(N)C4)n3)cc12` (centres unmarked) [Compound 38, 5-(3-aminopyrrolidin-1-yl)-6-chloro-3-(3-methylindazol-5-yl)-[1,2,4]triazine], under 100 nM.

As for `COC(=O)C1CN(c2cnnc(-c3ccc4[nH]nc(C)c4c3)n2)CCN1` (centres unmarked) [Compound 39], the IC50 under setting [1] was over 1000 nM. The same measure, in the same setting: the same measure for `COC(=O)C1CN(c2nc(-c3ccc4[nH]nc(C)c4c3)nnc2Cl)CCN1` (centres unmarked) [Compound 40]: over 1000 nM; for `Cc1n[nH]c2ccc(-c3nncc(N4CCNC5(CCCC5)C4)n3)cc12` [Compound 41, 5-(6,9-diaza-spiro[4.5]dec-9-yl)-3-(3-methylindazol-5-yl)-[1,2,4]triazine]: 100 to 1000 nM; for `Cc1n[nH]c2ccc(-c3nncc(N4CCN[C@H](c5ccccc5)C4)n3)cc12` [Compound 42, 3-(3-methylindazol-5-yl)-5-[(R)-3-phenylpiperazin-1-yl]-[1,2,4]triazine]: 100 to 1000 nM. Same read-out and setting: as for `Cc1n[nH]c2ccc(-c3nnc(Cl)c(N4CCN[C@H](c5ccccc5)C4)n3)cc12` [Compound 43, 6-chloro-3-(3-methylindazol-5-yl)-5-[(R)-3-phenylpiperazin-1-yl]-[1,2,4]triazine], the figure is 100 to 1000 nM; as for `Cc1n[nH]c2ccc(-c3nncc(N4CCNC5(CCCCC5)C4)n3)cc12` [Compound 44, 5-(1,4-diaza-spiro[5.5]undec-4-yl)-3-(3-methylindazol-5-yl)-[1,2,4]triazine], under 100 nM. The same measure, in the same setting: as for `Cc1n[nH]c2ccc(-c3nncc(N4CCNC(Cc5ccc(F)cc5)C4)n3)cc12` (centres unmarked) [Compound 45, 5-[3-(4-fluorobenzyl)piperazin-1-yl]-3-(3-methylindazol-5-yl)-[1,2,4]triazine], the figure is under 100 nM.
